According to ChEMBL document CHEMBL4507300 (2021):

Key:
[1] = target: Serine/threonine-protein kinase 32C (Homo sapiens) (UniProt Q86UX6); conditions: Compound concentration 1000.0 nM
[2] = target: Interferon-induced, double-stranded RNA-activated protein kinase (Homo sapiens) (UniProt P19525); conditions: Compound concentration 1000.0 nM
[3] = target: Serine/threonine-protein kinase WNK1 (Homo sapiens) (UniProt Q9H4A3); conditions: Compound concentration 1000.0 nM
[4] = target: Receptor-type tyrosine-protein kinase FLT3 (Homo sapiens) (UniProt P36888); conditions: Compound concentration 1000.0 nM
[5] = target: Tyrosine-protein kinase ABL2 (Homo sapiens) (UniProt P42684); conditions: Compound concentration 1000.0 nM
[6] = tested on: Receptor-type tyrosine-protein kinase FLT3 (Homo sapiens), P36888 [N841I]; conditions: Compound concentration 1000.0 nM
[7] = target: ALK tyrosine kinase receptor (Homo sapiens) (UniProt Q9UM73); conditions: Compound concentration 1000.0 nM
Histamine H1 receptor = Histamine H1 receptor (Homo sapiens, UniProt P35367); conditions: Compound concentration 10.0 uM
[8] = target: Mitogen-activated protein kinase 14 (Homo sapiens) (UniProt Q16539); conditions: Compound concentration 1000.0 nM
[9] = target: Mitogen-activated protein kinase 10 (Homo sapiens) (UniProt P53779); conditions: Compound concentration 1000.0 nM
[10] = tested on: Receptor-type tyrosine-protein kinase FLT3 (Homo sapiens), P36888 [UNDEFINED MUTATION]; conditions: Compound concentration 1000.0 nM
[11] = target: Cyclin-dependent kinase 17 (Homo sapiens) (UniProt Q00537); conditions: Compound concentration 1000.0 nM
[12] = target: Tyrosine-protein kinase Blk (Homo sapiens) (UniProt P51451); conditions: Compound concentration 1000.0 nM
[13] = target: MAP/microtubule affinity-regulating kinase 4 (Homo sapiens) (UniProt Q96L34); conditions: Compound concentration 1000.0 nM
[14] = target: Ephrin type-B receptor 4 (Homo sapiens) (UniProt P54760); conditions: Compound concentration 1000.0 nM
[15] = target: Phosphatidylinositol 5-phosphate 4-kinase type-2 beta (Homo sapiens) (UniProt P78356); conditions: Compound concentration 1000.0 nM
[16] = target: LIM domain kinase 1 (Homo sapiens) (UniProt P53667); conditions: Compound concentration 1000.0 nM
[17] = target: Bone morphogenetic protein receptor type-1B (Homo sapiens) (UniProt O00238); conditions: Compound concentration 1000.0 nM
[18] = tested on: ALK tyrosine kinase receptor (Homo sapiens), Q9UM73 [C1156Y]; conditions: Compound concentration 1000.0 nM
[19] = target: Calcium/calmodulin-dependent protein kinase type 1D (Homo sapiens) (UniProt Q8IU85); conditions: Compound concentration 1000.0 nM
[20] = target: Bone morphogenetic protein receptor type-1A (Homo sapiens) (UniProt P36894); conditions: Compound concentration 1000.0 nM
[21] = target: Serine/threonine-protein kinase PknB (Mycobacterium tuberculosis) (UniProt P9WI81); conditions: Compound concentration 1000.0 nM
[22] = target: cGMP-dependent protein kinase 1 (Homo sapiens) (UniProt Q13976); conditions: Compound concentration 1000.0 nM
[23] = target: Focal adhesion kinase 1 (Homo sapiens) (UniProt Q05397); conditions: Compound concentration 1000.0 nM
[24] = target: Phosphatidylinositol 3-kinase catalytic subunit type 3 (Homo sapiens) (UniProt Q8NEB9); conditions: Compound concentration 1000.0 nM
[25] = tested on: Epidermal growth factor receptor (Homo sapiens), P00533 [L858R,T790M]; conditions: Compound concentration 1000.0 nM
[26] = target: Serine/threonine-protein kinase Nek3 (Homo sapiens) (UniProt P51956); conditions: Compound concentration 1000.0 nM
[27] = target: D(4) dopamine receptor (Homo sapiens) (UniProt P21917); conditions: Compound concentration 10.0 uM
[28] = tested on: Tyrosine-protein kinase ABL1 (Homo sapiens), P00519 [H396P]; conditions: Compound concentration 1000.0 nM
[29] = tested on: Phosphatidylinositol 4,5-bisphosphate 3-kinase catalytic subunit alpha isoform (Homo sapiens), P42336 [C420R]; conditions: Compound concentration 1000.0 nM
[30] = target: Serine/threonine-protein kinase MRCK beta (Homo sapiens) (UniProt Q9Y5S2); conditions: Compound concentration 1000.0 nM
[31] = target: Hepatocyte growth factor receptor (Homo sapiens) (UniProt P08581); conditions: Compound concentration 1000.0 nM
[32] = target: Mitogen-activated protein kinase 7 (Homo sapiens) (UniProt Q13164); conditions: Compound concentration 1000.0 nM
[33] = target: Histamine H3 receptor (Homo sapiens) (UniProt Q9Y5N1); conditions: Compound concentration 10.0 uM
[34] = target: Receptor-type tyrosine-protein kinase FLT3 (Homo sapiens) (UniProt P36888); conditions: Compound concentration 1000.0 nM; remark: listed apart in the source
[35] = target: Receptor-interacting serine/threonine-protein kinase 1 (Homo sapiens) (UniProt Q13546); conditions: Compound concentration 1000.0 nM
[36] = target: Tyrosine-protein kinase BTK (Homo sapiens) (UniProt Q06187); conditions: Compound concentration 1000.0 nM
[37] = target: Insulin-like growth factor 1 receptor (Homo sapiens) (UniProt P08069); conditions: Compound concentration 1000.0 nM
[38] = target: Mitogen-activated protein kinase kinase kinase 1 (Homo sapiens) (UniProt Q13233); conditions: Compound concentration 1000.0 nM
[39] = target: Ribosomal protein S6 kinase alpha-6 (Homo sapiens) (UniProt Q9UK32); conditions: Compound concentration 1000.0 nM
[40] = target: Dual specificity mitogen-activated protein kinase kinase 3 (Homo sapiens) (UniProt P46734); conditions: Compound concentration 1000.0 nM
[41] = target: Calcium/calmodulin-dependent protein kinase type 1B (Homo sapiens) (UniProt Q6P2M8); conditions: Compound concentration 1000.0 nM
[42] = target: Glycogen synthase kinase-3 alpha (Homo sapiens) (UniProt P49840); conditions: Compound concentration 1000.0 nM
[43] = target: Serine/threonine-protein kinase NIM1 (Homo sapiens) (UniProt Q8IY84); conditions: Compound concentration 1000.0 nM
[44] = target: Serine/threonine-protein kinase TAO1 (Homo sapiens) (UniProt Q7L7X3); conditions: Compound concentration 1000.0 nM

Mitogen-activated protein kinase 14 (Homo sapiens), sequence (Q16539 whole entry): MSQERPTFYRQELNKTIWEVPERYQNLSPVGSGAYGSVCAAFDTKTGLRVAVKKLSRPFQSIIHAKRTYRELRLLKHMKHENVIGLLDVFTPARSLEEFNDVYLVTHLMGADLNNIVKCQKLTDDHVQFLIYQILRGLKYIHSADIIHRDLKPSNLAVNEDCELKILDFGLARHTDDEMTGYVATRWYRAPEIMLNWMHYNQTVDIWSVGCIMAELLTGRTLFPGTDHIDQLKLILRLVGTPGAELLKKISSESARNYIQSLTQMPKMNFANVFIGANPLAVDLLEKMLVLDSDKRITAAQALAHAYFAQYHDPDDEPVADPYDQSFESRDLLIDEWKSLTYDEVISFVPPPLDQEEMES
Serine/threonine-protein kinase MRCK beta (Homo sapiens), sequence (Q9Y5S2 whole entry): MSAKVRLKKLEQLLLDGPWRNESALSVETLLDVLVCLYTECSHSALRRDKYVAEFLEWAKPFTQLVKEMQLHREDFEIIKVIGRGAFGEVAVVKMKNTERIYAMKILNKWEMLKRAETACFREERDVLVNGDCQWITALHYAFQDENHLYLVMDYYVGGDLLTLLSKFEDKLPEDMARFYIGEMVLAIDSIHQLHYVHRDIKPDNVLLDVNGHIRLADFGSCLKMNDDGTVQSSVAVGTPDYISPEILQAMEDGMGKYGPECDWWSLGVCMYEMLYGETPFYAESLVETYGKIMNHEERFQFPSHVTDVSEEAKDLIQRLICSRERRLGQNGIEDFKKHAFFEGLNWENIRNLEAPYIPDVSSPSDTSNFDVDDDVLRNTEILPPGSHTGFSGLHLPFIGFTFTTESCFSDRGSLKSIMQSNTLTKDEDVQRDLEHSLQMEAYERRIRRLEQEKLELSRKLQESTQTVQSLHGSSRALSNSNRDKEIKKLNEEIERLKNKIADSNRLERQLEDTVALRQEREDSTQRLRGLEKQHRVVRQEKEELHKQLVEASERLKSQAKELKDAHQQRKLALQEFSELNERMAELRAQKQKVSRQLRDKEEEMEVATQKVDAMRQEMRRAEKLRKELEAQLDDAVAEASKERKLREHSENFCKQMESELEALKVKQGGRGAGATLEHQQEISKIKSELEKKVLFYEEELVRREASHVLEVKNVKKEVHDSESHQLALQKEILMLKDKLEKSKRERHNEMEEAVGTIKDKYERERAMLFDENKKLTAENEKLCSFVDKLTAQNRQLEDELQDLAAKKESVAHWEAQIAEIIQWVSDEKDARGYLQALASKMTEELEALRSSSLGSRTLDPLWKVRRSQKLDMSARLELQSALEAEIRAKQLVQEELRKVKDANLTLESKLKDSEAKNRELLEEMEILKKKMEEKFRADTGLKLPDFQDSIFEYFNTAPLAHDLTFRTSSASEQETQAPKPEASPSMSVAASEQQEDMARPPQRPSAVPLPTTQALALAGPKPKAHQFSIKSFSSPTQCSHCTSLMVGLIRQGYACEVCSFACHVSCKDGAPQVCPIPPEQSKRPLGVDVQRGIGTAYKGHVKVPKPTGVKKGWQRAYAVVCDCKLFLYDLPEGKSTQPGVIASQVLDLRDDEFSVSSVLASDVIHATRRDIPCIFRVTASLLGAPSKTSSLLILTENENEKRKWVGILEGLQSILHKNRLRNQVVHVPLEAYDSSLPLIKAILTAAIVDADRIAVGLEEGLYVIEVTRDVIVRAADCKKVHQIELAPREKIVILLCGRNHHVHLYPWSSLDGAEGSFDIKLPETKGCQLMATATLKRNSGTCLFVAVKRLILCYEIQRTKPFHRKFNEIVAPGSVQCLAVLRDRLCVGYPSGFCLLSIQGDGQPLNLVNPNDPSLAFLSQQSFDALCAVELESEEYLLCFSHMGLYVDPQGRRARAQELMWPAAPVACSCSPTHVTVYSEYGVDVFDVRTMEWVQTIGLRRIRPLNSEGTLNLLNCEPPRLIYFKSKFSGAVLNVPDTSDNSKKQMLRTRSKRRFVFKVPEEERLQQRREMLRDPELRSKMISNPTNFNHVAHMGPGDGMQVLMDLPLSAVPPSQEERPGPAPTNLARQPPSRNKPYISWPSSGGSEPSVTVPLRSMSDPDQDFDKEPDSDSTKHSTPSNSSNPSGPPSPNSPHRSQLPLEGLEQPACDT
Tyrosine-protein kinase BTK (Homo sapiens), sequence (Q06187 whole entry): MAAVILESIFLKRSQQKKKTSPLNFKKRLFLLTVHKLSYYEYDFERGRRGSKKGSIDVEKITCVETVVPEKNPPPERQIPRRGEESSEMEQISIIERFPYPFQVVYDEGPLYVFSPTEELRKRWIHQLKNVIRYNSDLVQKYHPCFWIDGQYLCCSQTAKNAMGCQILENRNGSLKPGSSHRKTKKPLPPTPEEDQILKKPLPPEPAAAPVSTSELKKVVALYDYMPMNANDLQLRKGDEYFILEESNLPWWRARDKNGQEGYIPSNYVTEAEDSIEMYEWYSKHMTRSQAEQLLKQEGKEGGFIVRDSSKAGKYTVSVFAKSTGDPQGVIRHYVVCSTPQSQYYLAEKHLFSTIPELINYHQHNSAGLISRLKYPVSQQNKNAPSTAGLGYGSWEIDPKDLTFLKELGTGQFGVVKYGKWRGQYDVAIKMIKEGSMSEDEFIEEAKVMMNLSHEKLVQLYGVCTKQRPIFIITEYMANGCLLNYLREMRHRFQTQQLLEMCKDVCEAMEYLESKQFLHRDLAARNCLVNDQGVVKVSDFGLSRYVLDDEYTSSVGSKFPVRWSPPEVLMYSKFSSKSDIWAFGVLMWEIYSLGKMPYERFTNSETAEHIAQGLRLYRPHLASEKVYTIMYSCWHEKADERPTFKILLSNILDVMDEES
MAP/microtubule affinity-regulating kinase 4 (Homo sapiens), sequence (Q96L34 whole entry): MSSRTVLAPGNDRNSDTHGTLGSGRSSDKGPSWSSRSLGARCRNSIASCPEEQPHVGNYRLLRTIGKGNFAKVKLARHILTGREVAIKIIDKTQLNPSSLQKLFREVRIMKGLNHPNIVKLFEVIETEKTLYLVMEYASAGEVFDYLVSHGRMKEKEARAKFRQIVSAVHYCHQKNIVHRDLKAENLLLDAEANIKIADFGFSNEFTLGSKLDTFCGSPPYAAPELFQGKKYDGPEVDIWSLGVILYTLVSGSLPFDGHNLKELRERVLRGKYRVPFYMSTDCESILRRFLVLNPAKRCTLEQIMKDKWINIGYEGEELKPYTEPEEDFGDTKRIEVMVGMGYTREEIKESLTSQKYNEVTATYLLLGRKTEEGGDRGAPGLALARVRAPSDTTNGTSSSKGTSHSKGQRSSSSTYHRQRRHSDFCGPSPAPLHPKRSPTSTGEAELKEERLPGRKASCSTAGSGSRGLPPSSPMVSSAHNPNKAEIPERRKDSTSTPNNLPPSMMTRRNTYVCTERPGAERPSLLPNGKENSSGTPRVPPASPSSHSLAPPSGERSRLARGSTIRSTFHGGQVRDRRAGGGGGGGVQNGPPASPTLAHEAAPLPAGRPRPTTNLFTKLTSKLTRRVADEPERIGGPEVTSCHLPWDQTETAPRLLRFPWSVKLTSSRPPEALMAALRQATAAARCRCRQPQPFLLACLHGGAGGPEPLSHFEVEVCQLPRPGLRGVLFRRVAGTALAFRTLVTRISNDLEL
D(4) dopamine receptor (Homo sapiens), sequence (P21917 whole entry): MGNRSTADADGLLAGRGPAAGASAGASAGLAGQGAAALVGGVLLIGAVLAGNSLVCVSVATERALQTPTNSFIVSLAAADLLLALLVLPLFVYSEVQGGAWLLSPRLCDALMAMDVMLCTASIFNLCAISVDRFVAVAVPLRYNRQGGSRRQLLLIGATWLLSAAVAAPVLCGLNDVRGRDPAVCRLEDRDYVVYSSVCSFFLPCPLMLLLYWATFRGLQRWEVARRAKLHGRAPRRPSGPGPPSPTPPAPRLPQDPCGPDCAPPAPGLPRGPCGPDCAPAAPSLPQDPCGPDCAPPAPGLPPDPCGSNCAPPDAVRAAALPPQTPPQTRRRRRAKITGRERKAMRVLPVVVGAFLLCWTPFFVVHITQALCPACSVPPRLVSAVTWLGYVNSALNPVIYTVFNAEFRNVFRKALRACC
Focal adhesion kinase 1 (Homo sapiens), sequence (Q05397 2-1052 limits assumed): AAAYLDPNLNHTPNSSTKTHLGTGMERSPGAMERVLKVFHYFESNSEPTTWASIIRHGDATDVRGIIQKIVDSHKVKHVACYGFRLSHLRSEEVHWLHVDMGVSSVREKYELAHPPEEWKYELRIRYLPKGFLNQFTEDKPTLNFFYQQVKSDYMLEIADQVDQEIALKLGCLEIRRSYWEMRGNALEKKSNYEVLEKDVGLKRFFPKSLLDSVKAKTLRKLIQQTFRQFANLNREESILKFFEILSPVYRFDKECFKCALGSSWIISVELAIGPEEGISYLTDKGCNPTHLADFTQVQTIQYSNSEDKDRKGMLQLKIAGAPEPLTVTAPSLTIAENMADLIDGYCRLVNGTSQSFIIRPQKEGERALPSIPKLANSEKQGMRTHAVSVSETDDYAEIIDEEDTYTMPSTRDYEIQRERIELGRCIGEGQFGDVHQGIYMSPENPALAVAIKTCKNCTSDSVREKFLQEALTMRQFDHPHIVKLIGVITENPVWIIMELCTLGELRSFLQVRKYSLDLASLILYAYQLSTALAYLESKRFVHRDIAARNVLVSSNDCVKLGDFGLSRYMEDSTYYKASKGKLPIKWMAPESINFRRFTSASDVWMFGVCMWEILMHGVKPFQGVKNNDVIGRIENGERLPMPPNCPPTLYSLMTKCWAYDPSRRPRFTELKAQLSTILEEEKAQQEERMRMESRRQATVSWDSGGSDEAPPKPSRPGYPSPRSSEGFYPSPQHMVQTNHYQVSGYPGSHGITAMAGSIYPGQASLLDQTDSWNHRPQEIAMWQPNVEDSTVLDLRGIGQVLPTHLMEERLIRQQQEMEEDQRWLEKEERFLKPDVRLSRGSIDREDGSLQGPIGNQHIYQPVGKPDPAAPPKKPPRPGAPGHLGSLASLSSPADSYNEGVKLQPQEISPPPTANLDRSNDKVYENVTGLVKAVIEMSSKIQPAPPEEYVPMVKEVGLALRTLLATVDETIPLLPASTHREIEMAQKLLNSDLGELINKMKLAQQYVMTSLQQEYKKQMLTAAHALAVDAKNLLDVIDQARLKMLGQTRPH

COc1cccc(CNC(=O)c2nc3scc(COCc4ccc(C(=O)O)cc4)c3c(=O)[nH]2)c1 [T-26c]
residual activity [1]: 89.6%
residual activity [2]: 97.7%
residual activity [3]: 76.7%
residual activity [4]: 85%
residual activity [5]: 82.2%
residual activity [6]: 100%
residual activity [7]: 92%
inhibition (Histamine H1 receptor): 50.2%
residual activity [8]: 96.7%
residual activity [9]: 76.6%
residual activity [10]: 58.4%
residual activity [11]: 87.8%
residual activity [12]: 100%
residual activity [13]: 89.2%
residual activity [14]: 89.4%
residual activity [15]: 100%
residual activity [16]: 96.8%
residual activity [17]: 64.5%
residual activity [18]: 100%
residual activity [19]: 100%
residual activity [20]: 100%
residual activity [21]: 93%
residual activity [22]: 100%
residual activity [23]: 100%
residual activity [24]: 58.6%
residual activity [25]: 58.6%
residual activity [26]: 78.1%
inhibition [27]: 13.9%
residual activity [28]: 86.4%
residual activity [29]: 100%
residual activity [30]: 99.5%
residual activity [31]: 100%
residual activity [32]: 99.3%
inhibition [33]: -9.59%
residual activity [34]: 62.5%
residual activity [35]: 97.4%
residual activity [36]: 63%
residual activity [37]: 100%
residual activity [38]: 63.1%
residual activity [39]: 100%
residual activity [40]: 92.9%
residual activity [41]: 70.7%
residual activity [42]: 100%
residual activity [43]: 100%
residual activity [44]: 69.5%
